# How the values were obtained:
# [1] = system: tumor necrosis factor-alpha; settings: cited from earlier work
# germinal center = experiment: Germinal center intensity by FITC-PNA in spleen (Example 18); format: in vivo, mouse; settings: about 48 hours, controls approximately 40
# Method: The mice were sacrificed by exsanguination and then residual blood cells flushed out with 5 U heparin/ml PBS via retrograde flush into the thoracic jugular vein. The spleens were removed, weighed wet, and then fixed in 10% formalin. Subsequently the spleens were sectioned via proprietary methods and then incubated with FITC-PNA at 4 deg.C for 24 hours, washed, placed on slides and immunofluorescent images were captured. Metamorph software was used to quantify the immunofluorescent signal. Average germinal center intensity measured by FITC-PNA average intensity was approximately 40 in controls, reduced to about 33 at the 6 mg/kg HED, reduced to about 22.5 at the 9 mg/kg HED, and further reduced to about 15 at the 11 mg/kg HED.
# [2] = system: active germinal centers in the spleen; experiment: Dexamethasone pretreatment: ex vivo stem cell binding to splenic sections, spleen weight, MNC and germinal centers (Example 8)
# [3] = system: osteoarthritis (OA), tendon injury, or osteochondral defect; experiment: Equine outcome after stem cell (MSC) injection with dexamethasone pretreatment (Example 16); format: in vivo; settings: 5.7 mg/kg HED, one horse
# Method: Approximately 48 hours later male or female horses with osteoarthritis (OA), tendon injury, or osteochondral defect were intra-articularly (IA) or intra-tendon injected with either allogeneic adipose-derived mesenchymal stem cells (MSCs) or with autologous, bone marrow derived culture expanded MSCs.
# spleen [4] = experiment: Splenic sequestration and circulating numbers of injected CTG-labeled stem cells, flow cytometry (Example 14); format: in vivo, mouse; settings: 1 mg IP days -7, -4, -1 (HED 7.4 mg/kg)
# Description: Control mice (n=4) were IP injected with the same volume per body weight of 70% ethanol diluted 1:10 in PBS. Sixty minutes later the mice were sacrificed by exsanguination and spleens and blood collected for flow cytometry. The spleens were dissociated to single cell suspensions prior to flow cytometry. CTG-labeled bone marrow mononuclear stem cells were detected in the spleen and lysed whole blood using flow cytometry.
# equine bone marrow MSC [5] = experiment: Equine bone marrow CFU-F assay after IV dexamethasone (Example 21); format: in vivo, horse; settings: Day 14 after plating; 3.18 mg/kg (HED 6 mg/kg) IV; placebo about 46.6
# spleen [6] = experiment: In vivo sequestration of injected CTG-labeled MNC in the spleen, flow cytometry (Example 9); set-up: species or system mouse; settings: cells injected day 7, one hour
# blood lymphocytes = experiment: Blood lymphocytes (CBC) after oral dexamethasone (Example 20); format: in vivo, mouse; settings: placebo about 1700
# equine bone marrow MSC [7] = experiment: Osteocyte, chondrocyte and adipocyte differentiation of MSC from treated horses (Example 21); format: in vivo, horse; settings: for osteocyte differentiation: not different
# Method: 1 g of Alizarin Red S (Sigma-Aldrich) was mixed with 50 ml of DI water to make a 50 ml solution of Alizarin Red S 2%. The pH of the Alizarin Red S solution was adjusted to 4.1-4.3 using ammonium hydroxide. The solution was filtered through a vacuum filtration system, then transferred to a 50 ml conical tube and stored protected from light.
# 250 mg of Oil Red O (Sigma-Aldrich) was added to 50 mL of isopropanol to make a 50 ml solution of Oil Red O 0.5%. The solution was mixed well, then filtered through a vacuum filtration system. After that, it was stored as a stock solution in a 50 ml conical tube wrapped in aluminum foil protected from light. On the staining day, 3 parts of stock Oil Red O 0.5% were mixed with 2 parts of DI water to make a working stock solution. This solution was incubated for 10 min and the forming precipitate removed by filtration through a sterile filter.
# 50 mg of Safranin O (Sigma-Aldrich) was added to 50 ml of DI water to make a 50 ml solution of Safranin O 0.1%. The solution was mixed well, then filtered through a vacuum filtration system. After that, it was stored in 50 ml conical tube protected from light.
# After BM withdrawal from each vial for the Giemsa staining assay, another 100 μl of BM was withdrawn, and plated in CFU-F assay media (10 ml medium per T25 flasks; 2× total) 36 hours after it was extracted from the horse. MSCs were passaged in MesenCult™ MSC Basal Medium (Human; growth medium; including stimulatory supplement) until passage number 3 (P3). After trypsinization of the cells, they were mixed with an equivalent volume of growth medium, centrifuged (230 g for 3 min at RT) and resuspended in 1 ml of growth medium. Cells were counted and seeded using 30,000 cells/well of a 12 well plate (30,000 cells/well seeded in 3 wells; T1, T2 and one negative control). The seeded cells (P4) of T1 and T2 were left expanding in growth medium for two days, followed by a medium change into osteocyte differentiation medium (Stem Pro Osteocyte Differentiation Basal Medium and supplement; Gibco). The latter was changed every 2-3 days for all the plates. Morphological changes were documented by taking images using the EVOS XL Core microscope. Day 1 corresponds to MSCs being in differentiation medium for 24 h, Day 2 for 48 h etc. Two time points (T1: Day 4 and T2: Day 7 with one 12-well plate for both time points) were chosen for the osteocyte staining (Alizarin Red S) to assess the onset as well as the differentiation extent of MSCs from AVM0703 vs Placebo treated horses. […]
# MSCs were passaged in MesenCult™ MSC Basal Medium (Human; including stimulatory supplement) until passage number 4 (P4). […] Cells were counted and seeded using a density of 80,000 cells/well of a 12 well plate (80,000 cells/well seeded in 3 wells; T1, T2 and one negative control). […]
# [8] = single 1 mg, 7 days prior to harvest
smiles,measurement,setting,value
Nc1cccc2c1CN(C1CCC(=O)NC1=O)C2=O (stereo not drawn) [Lenalidomide],potency in inhibiting tumor necrosis factor-alpha relative to thalidomide,[1],"50,000 times"
C[C@@H]1C[C@H]2[C@@H]3CCC4=CC(=O)C=C[C@]4(C)[C@@]3(F)[C@@H](O)C[C@]2(C)[C@@]1(O)C(=O)CO [dexamethasone],average germinal center intensity measured by FITC-PNA average intensity,germinal center; 6 mg/kg HED IP,about 33
same,average germinal center intensity measured by FITC-PNA average intensity,germinal center; 9 mg/kg HED IP,about 22.5
same,average germinal center intensity measured by FITC-PNA average intensity,germinal center; 11 mg/kg HED IP,about 15
same,reduction of mononuclear stem cell binding to spleen sections,[2]; day 7 after single 1 mg IP,30-40%
same,increase of percentage of stem cells within MNC fractions from whole blood or bone marrow compared to control (average),[2]; [8],32%
same,reduction of PNA labeled germinal centers,[2]; [8],up to 24%
same,reduction of average circulating MNC number,[2]; [8],34%
same,reduction of spleen weights (average),[2]; [8],22%
same,"return to work, tendon injury (DDFT grade 3)",[3],≤ 6 months
same,circulating numbers of CTG-stem cells,"spleen [4]; controls 4,500","49,000 CTG-stem cells"
same,splenic sequestration 60 minutes after injection,"spleen [4]; controls 665,000","285,000 CTG-stem cells"
same,MSC number (CFU-F),equine bone marrow MSC [5],about 78.8 CFU-F
same,reduction of MNC CTG total cell number accumulation in the spleen,"spleen [6]; 3 mgs total (1 mg ip day 0, 2 and 5)",approximately 70%
same,reduction of MNC CTG total cell number accumulation in the spleen,spleen [6]; total 2 mgs (1 mg ip day 0 and day 4),33-43%
same,lymphocytes,blood lymphocytes; single acute HED 12 mg/kg oral on day -2,about 170 per microliter
same,lymphocytes,"blood lymphocytes; two repeat doses HED 6 mg/kg oral, day -2 and day -1",about 1000 per microliter
same,osteocyte differentiation,"equine bone marrow MSC [7]; day 4 of assay, placebo 1.75",3.19
same,chondrocyte culture area,"equine bone marrow MSC [7]; day 6 of assay, placebo 23.4%",40.1%
same,osteocyte differentiation,"equine bone marrow MSC [7]; day 7 of assay, placebo 4.29",4.58
same,adipocyte numbers,"equine bone marrow MSC [7]; day 24 of assay, placebo 4.8, no difference",7.4 adipocytes

# From patent US10426740B1, “Compositions and methods to inhibit stem cell and progenitor cell binding to lymphoid tissue and for regenerating germinal centers in lymphatic tissues” (AVM BIOTECHNOLOGY, LLC, priority 2010, dated 2019)
